The values that follow come from ChEMBL document CHEMBL1129832, “Rational design, synthesis, and serine protease inhibitory activity of a novel P1-argininal derivative featuring a conformationally constrained P2P3 bicyclic lactam moiety” (Bioorg Med Chem Lett, 1997).

In experiment [1] the target is Tissue-type plasminogen activator (Homo sapiens, UniProt P00750). Description: In vitro inhibitory concentration required to inhibit tissue plasminogen activator cleavage of the chromogenic substrate by 50%; Inactive.
Experiment [2] has as its target Serine protease 1 (Homo sapiens, UniProt P07477).
The target of experiment [3] is T1, Plasminogen (Homo sapiens, UniProt P00747).
Experiment [4] concerns the target Prothrombin (Homo sapiens, UniProt P00734).
Experiment [5] addresses Coagulation factor X (Homo sapiens, UniProt P00742).
Description: In vitro inhibitory concentration required to inhibit Coagulation factor X by 50%
Experiment [6] concerns the target T1, Plasminogen. The source holds these as a separate data set.

Coagulation factor X, sequence (P00742 41-179 limits assumed): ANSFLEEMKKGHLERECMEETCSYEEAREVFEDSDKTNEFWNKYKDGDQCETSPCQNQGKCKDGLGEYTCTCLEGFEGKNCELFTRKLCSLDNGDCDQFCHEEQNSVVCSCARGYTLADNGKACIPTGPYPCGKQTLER
Coagulation factor X, sequence (P00742 235-488 limits assumed): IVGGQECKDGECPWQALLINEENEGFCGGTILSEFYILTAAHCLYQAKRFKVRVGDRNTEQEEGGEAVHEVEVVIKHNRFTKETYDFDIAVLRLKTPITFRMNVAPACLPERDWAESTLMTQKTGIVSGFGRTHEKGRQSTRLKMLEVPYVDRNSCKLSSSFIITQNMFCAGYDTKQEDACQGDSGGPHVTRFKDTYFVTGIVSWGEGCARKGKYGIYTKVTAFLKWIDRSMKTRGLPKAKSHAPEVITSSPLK
T1 sequence (P00747 97-580 limits assumed): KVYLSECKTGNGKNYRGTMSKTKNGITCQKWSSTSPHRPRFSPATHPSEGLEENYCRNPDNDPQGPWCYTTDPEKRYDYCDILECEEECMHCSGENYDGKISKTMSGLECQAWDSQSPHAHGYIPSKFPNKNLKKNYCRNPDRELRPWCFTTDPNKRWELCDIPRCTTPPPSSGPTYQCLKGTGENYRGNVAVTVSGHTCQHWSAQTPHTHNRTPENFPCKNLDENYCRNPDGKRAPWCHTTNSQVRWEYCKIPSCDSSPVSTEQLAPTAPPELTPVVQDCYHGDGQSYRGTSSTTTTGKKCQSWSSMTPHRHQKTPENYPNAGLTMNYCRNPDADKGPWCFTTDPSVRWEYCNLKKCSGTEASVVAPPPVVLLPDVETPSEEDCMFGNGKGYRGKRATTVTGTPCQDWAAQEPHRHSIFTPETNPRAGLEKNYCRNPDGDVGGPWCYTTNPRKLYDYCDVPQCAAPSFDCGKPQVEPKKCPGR
T1 sequence (P00747 581-810 limits assumed): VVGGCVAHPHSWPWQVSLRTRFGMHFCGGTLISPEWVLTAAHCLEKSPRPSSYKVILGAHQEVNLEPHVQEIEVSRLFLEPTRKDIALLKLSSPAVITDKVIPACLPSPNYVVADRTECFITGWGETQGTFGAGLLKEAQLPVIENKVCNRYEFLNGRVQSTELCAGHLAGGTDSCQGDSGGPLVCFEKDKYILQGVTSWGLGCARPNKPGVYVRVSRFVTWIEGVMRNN
Tissue-type plasminogen activator, sequence (P00750 whole entry): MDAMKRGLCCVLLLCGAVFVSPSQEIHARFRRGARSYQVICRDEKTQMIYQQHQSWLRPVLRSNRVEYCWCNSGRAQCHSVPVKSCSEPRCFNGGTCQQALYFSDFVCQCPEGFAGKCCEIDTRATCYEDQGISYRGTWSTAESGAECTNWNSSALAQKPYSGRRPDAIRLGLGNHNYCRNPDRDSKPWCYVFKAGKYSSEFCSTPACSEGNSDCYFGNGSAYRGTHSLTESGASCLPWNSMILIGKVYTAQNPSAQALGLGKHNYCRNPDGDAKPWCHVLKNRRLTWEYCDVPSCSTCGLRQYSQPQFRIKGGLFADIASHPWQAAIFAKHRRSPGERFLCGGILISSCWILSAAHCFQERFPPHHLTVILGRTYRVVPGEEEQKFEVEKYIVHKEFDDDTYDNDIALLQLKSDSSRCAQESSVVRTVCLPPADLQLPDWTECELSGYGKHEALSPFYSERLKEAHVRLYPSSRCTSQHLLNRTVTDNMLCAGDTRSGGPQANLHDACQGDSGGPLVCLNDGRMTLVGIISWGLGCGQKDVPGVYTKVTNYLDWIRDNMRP
Serine protease 1, sequence (P07477 whole entry): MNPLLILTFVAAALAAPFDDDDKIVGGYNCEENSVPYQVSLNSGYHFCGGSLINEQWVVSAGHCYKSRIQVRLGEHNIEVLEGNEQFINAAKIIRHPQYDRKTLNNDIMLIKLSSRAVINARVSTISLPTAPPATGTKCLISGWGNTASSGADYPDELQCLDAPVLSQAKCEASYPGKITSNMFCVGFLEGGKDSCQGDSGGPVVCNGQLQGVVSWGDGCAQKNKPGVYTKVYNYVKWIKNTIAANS

`CCCC(CCC)C(=O)N[C@@H](CC(=O)OC)C(=O)N1CCCC1C(=O)N[C@H]1CCCN(C(=N)N)C1O` (stereo partly specified): the IC50 entry in experiment [1] is “Not Active”; in experiment [2] it was 1.36 nM; in experiment [3], 315 nM; in experiment [4] it was 1.1 nM.
With `N=C(N)N1CCC[C@H](NC(=O)C2CS[C@H]3CC[C@H](NS(=O)(=O)Cc4ccccc4)C(=O)N23)C1O` (stereo partly specified), the IC50 result is “Not Active” in experiment [1]; 11.6 nM in experiment [2]; 923 nM in experiment [3]; 16.4 nM in experiment [4]; greater than 2500 nM in experiment [5].
As for `COC(=O)C[C@H](NS(=O)(=O)Cc1ccccc1)C(=O)N1CCCC1C(=O)N[C@H]1CCCN(C(=N)N)C1O` (stereo partly specified), the IC50 in experiment [2] was 2.58 nM; in experiment [3], 14.8 nM; in experiment [4], 5.01 nM; in experiment [5] it was 29.7 nM.
Turning to `N=C(N)N1CCC[C@H](NC(=O)CN2CCC[C@H](NS(=O)(=O)Cc3ccccc3)C2=O)C1O` (stereo partly specified), the results for the IC50 result in experiment [1], in experiment [6] and in experiment [5] were “Not Active”, “Not Active” and greater than 2500 nM, respectively.
